Data reported in publication PMC6010102, “N-thioalkylcarbazoles derivatives as new anti-proliferative agents: synthesis, characterisation and molecular mechanism evaluation” (Journal of Enzyme Inhibition and Medicinal Chemistry, 2018).

Key:
[1] = test system: MDA-MB-231 human breast cancer cells; test: MTT cell viability, MDA-MB-231; type: cell-based; settings: 72 h exposure, mean ± SD, read-out: Antiproliferative activity IC50, MDA-MB-231
Text: (§1) The six cell lines used in this work were purchased from American Type Culture Collection (ATCC, Manassas, VA). MCF-7 human breast cancer cells, oestrogen receptor (ER) positives, were maintained in Dulbecco’s Modified Eagle’s Medium/Nutrient Mixture F-12 Ham (DMEM/F12), supplemented with 5% foetal bovine serum (FBS) and 100 U/ml penicillin/streptomycin, as previously described. MDA-MB-231, human breast cancer cells, oestrogen receptor (ER) negative, were maintained in Dulbecco’s Modified Eagle’s Medium/Nutrient Mixture F-12 Ham (DMEM/F12), supplemented with 5% Newborn Calf Serum (NCS) and 100 U/ml penicillin/streptomycin. HeLa human epithelial cervix carcinoma cells, oestrogen receptor (ER) negative, and ISHIKAWA human endometrial adenocarcinoma cell, oestrogen receptor positive, were maintained in minimum essential medium (MEM), supplemented with 10% FBS, 100 U/ml penicillin/streptomycin and 1% non-essential amino acid. 3T3-L1 cells line of murine fibroblasts of embryonic type, were maintained in DMEM, supplemented with 10% NCS and 100 U/ml penicillin/streptomycin. MCF-10A human mammary epithelial cells were cultured in DMEM/F12 medium, supplemented with 5% horse serum (HS) (Eurobio, Les Ullis, Cedex, France), 100 U/ml penicillin/streptomycin, […] hydrocortisone, 20 ng/ml hEGF (human epidermal growth factor), 10 μg/ml insulin and […] cholera enterotoxin (Sigma-Aldrich, Milano, Italy). Cells were maintained at 37 °C in a humidified atmosphere of 95% air and 5% CO2 and periodically screened for contamination.
(§2) MDA-MB-231, MCF-7, HeLa and ISHIKAWA cells were grown in complete medium and, before being treated, they were serum deprived for 24 h, to allow cell cycle synchronisation. Then cells were grown in phenol red-free medium supplemented with 1% DCC (destran-coated charcoal treated) FBS, then treated with increasing concentrations (0.1, 1, 10, 20, 40, 100 µM) of each compound for 72 h. Compounds were dissolved in dimethylsulphoxide (DMSO) (Sigma, St. Louis, MO) and diluted in each cell medium. Untreated cells, used as a control, were added with DMSO alone (final concentration 0.1%). Cell viability was assessed using the 3-[4,5-dimethylthiazol-2-yl]-2,5-diphenyltetrazolium bromide reagent (MTT), according to the protocol from manufacturer (Sigma-Aldrich, Milan, Italy), as previously described[37] ^, [38]. For each sample, the mean absorbance, measured at 570 nm, was expressed as a percentage of the control and plotted versus drug concentration to determine for each cell line the IC50 values (namely, drugs concentrations able to reduce cell viability of 50% with respect to the control), using GraphPad Prism 5 Software (GraphPad Inc., San Diego, CA)[39]. Each experiment was carried out in quadruplicate. Standard deviations (SD) were shown.

[2] = test system: MCF-7 human breast cancer cells; test: MTT cell viability, MCF-7; type: cell-based; settings: MCF7, 72 h exposure, mean ± SD, read-out: Antiproliferative activity IC50, MCF-7
Text: as §1, §2

[3] = test system: 3T3-L1 murine fibroblasts; test: MTT cell viability, 3T3-L1; type: cell-based; settings: Mus musculus, non-tumoural cells, 72 h exposure, mean ± SD, read-out: Antiproliferative activity IC50, 3T3-L1
Text: as §1, §2

[4] = test system: MCF-10A human mammary epithelial cells; test: MTT cell viability, MCF-10A; type: cell-based; settings: non-tumoural cells, 72 h exposure, mean ± SD, read-out: Antiproliferative activity IC50, MCF-10a
Text: as §1, §2

[5] = test system: HeLa human epithelial cervix carcinoma cells; test: MTT cell viability, HeLa; type: cell-based; settings: 72 h exposure, mean ± SD, read-out: Antiproliferative activity IC50, HeLa
Text: as §1, §2

[6] = test system: ISHIKAWA human endometrial adenocarcinoma cells; test: MTT cell viability, ISHIKAWA; type: cell-based; settings: 72 h exposure, mean ± SD, read-out: Antiproliferative activity IC50, ISHIKAWA
Text: as §1, §2

hTopoII = hTopoII (Homo sapiens, UniProt P11388); test: Human topoisomerase II decatenation assay; type: biochemical; settings: 50 µM, reference molecule
Procedure: Human topoisomerase II decatenation assay: hTopoII decatenation assays were performed as reported in Iacopetta et al.[8].
Figure 2. hTopoII inhibition assay. kDNA was incubated with human Topoisomerase II in the absence (lane C, vehicle DMSO) or presence of compound 5c (lane 5c) or Ellipticine (lane E) at 10 and 50 µM, respectively. Lane K, kinetoplast DNA (kDNA).

hTopoII, sequence (P11388 whole entry): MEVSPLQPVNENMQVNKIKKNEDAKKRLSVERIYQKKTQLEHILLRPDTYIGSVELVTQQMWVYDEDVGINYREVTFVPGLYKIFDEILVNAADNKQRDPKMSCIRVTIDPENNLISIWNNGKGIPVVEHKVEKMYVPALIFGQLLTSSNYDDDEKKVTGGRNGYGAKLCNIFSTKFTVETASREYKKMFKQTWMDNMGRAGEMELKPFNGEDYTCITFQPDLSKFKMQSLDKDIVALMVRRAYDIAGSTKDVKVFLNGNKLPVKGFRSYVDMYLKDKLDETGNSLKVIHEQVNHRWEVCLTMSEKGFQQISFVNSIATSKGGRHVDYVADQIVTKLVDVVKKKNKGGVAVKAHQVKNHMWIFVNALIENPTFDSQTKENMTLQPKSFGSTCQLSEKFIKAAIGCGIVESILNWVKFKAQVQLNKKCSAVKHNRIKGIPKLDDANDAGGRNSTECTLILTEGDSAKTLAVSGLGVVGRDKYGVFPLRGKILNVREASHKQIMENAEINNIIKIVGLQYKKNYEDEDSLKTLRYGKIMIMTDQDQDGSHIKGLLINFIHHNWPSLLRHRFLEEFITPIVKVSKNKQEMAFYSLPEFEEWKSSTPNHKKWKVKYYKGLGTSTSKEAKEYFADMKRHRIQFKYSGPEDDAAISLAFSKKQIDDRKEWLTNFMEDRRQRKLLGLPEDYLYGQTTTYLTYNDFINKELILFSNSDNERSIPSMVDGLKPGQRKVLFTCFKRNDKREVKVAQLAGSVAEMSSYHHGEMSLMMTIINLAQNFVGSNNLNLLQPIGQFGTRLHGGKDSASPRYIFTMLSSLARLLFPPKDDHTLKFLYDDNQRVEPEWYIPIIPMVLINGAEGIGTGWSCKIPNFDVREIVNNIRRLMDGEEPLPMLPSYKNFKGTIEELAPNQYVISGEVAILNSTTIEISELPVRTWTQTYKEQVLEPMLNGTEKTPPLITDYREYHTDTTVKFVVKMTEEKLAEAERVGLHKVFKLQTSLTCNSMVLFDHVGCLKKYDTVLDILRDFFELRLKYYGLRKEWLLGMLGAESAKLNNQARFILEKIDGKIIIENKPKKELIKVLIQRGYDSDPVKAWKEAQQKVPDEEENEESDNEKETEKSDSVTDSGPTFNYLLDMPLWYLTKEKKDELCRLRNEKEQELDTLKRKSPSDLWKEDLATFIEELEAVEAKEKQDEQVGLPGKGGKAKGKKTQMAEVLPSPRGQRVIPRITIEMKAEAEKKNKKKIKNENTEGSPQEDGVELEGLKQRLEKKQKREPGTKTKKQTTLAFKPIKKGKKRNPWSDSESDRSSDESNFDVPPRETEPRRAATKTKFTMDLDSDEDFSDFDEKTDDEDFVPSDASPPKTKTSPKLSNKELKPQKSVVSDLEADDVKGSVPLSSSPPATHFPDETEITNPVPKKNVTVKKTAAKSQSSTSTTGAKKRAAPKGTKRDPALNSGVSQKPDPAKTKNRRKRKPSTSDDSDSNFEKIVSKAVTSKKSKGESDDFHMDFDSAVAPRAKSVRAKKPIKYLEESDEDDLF

Row | Compound | IC50 [1] [µM] | IC50 [2] [µM] | IC50 [5] [µM] | IC50 [6] [µM] | IC50 [3] [µM] | IC50 [4] [µM] | hTopoII inhibition (kDNA decatenation) (hTopoII)
1 | SCCCCCCCn1c2ccccc2c2ccccc21 [5a, 7-(9H-Carbazol-9-yl)heptane-1-thiol] | 39.9 ± 0.52 | 50.4 ± 0.96 | 12.8 ± 0.62 | 19.2 ± 1.13 | > 100 | > 100 | 
2 | Cc1ccc2c(c1)c1c(C)ccc(C)c1n2CCCCCCCS [5b, 7-(1,4,6-Trimethyl-9H-carbazol-9-yl)-heptane-1-thiol] | > 100 | > 100 | > 100 | > 100 | > 100 | > 100 | 
3 | Cc1c2ccncc2c(C)c2c1[nH]c1ccccc12 [Ellipticine, reference compound] | 1.85 ± 0.15 | 1.25 ± 0.3 | 1.05 ± 0.5 | 1.7 ± 0.8 | 0.98 ± 0.7 | 1.2 ± 0.2 | complete inhibition

Second part, led by results:

Row | IC50 [1] [µM] | IC50 [2] [µM] | IC50 [5] [µM] | IC50 [6] [µM] | Compound | IC50 [3] [µM] | IC50 [4] [µM] | hTopoII inhibition (kDNA decatenation) (hTopoII)
4 | > 100 | > 100 | > 100 | > 100 | SCCCCCCCCn1c2ccccc2c2ccccc21 [6a, 8-(9H-Carbazol-9-yl)octane-1-thiol] | > 100 | > 100 | 
5 | > 100 | > 100 | > 100 | > 100 | Cc1ccc2c(c1)c1c(C)ccc(C)c1n2CCCCCCCCS [6b, 8-(1,4,6-Trimethyl-9H-carbazol-9-yl)-octane-1-thiol] | > 100 | > 100 | 
6 | > 100 | > 100 | > 100 | > 100 | Cc1ccc(C)c2c1c1cc(Br)ccc1n2CCCCCCCCS [6c, 8-(6-Bromo-1,4-dimethyl-9H-carbazol-9-yl)-octane-1-thiol] | > 100 | > 100 | 
7 | > 100 | > 100 | > 100 | > 100 | SCCCCCCCCCn1c2ccccc2c2ccccc21 [7a, 9-(9H-Carbazol-9-yl)nonane-1-thiol] | > 100 | > 100 | 
8 | > 100 | > 100 | > 100 | > 100 | Cc1ccc2c(c1)c1c(C)ccc(C)c1n2CCCCCCCCCS [7b, 9-(1,4,6-Trimethyl-9H-carbazol-9-yl)-nonane-1-thiol] | > 100 | > 100 | 
9 | > 100 | > 100 | > 100 | > 100 | Cc1ccc(C)c2c1c1cc(Br)ccc1n2CCCCCCCCCS [7c, 9-(6-Bromo-1,4-dimethyl-9H-carbazol-9-yl)-nonane-1-thiol] | > 100 | > 100 | 
